Measurements published in ChEMBL document CHEMBL3045598, “Utilization of nicotinonitrile-2-thiol in the synthesis of new thiepino[2,3-b]pyridine derivative as an in vitro novel antitumor potent” (Med Chem Res, 2013).
Calls of active or inactive are those of the source. No cut-off for these calls is given here.

Test system: Ehrlich
Test: Cytotoxicity against Mus musculus (mouse) EAC cells assessed as decrease in cell viability at 50 ug/ml by trypan blue exclusion assay
Format: functional, cell-based

Row | Structure (SMILES) | Activity
1 | Cc1cc2n(c(=S)c1C#N)CCCC(=O)C2 | Active
2 | CCOC(=O)CCCSc1nc(C)cc(C)c1C#N | Active
3 | CCOC(=O)C1CCSc2nc(C)cc(C)c2C1=O (stereo not drawn) | Active
